US20260259231A1, “METHODS AND DEVICES FOR DETECTION OF COAGULATION IMPAIRMENT” (Coagulo Medical Technologies, Inc., priority 2021, published 2026)
Where two headings read alike, the source gives them in different places.

What was measured:
[1] = tested on: coagulation cascade (FXa, FIIa, FXI inhibition); test: Clotting time of inhibitor-spiked blood samples on addition of buffer, FXa or FIIa (FIG. 33B); details: for clotting time, control condition: no exogenous factor added, contact activation pathway activator; for clotting time upon addition of exogenous FIIa: two concentrations of FIIa; for clotting time upon addition of exogenous FXa: two concentrations of FXa
Description: The control condition (where no exogenous factor is added) utilizes an activator of the contact activation pathway to activate FXII to FXIIa. FIG. 33B is a bar graph showing the clotting time responses to the addition of buffer (control), two concentrations of FXa, and two concentrations of FIIa. […] The amount of exogenous FIIa added to the sample was inadequate to overcome all of the FIIa inhibition present in the sample. In these examples in FIG. 33B, when a sample's clotting time normalizes to the negative control clotting time, such a result is also described as an “unaffected” clotting time in the figures depicting the pathways.

[2] = target: FXI (Homo sapiens, UniProt P03951); test: Clotting time of inhibitor-spiked whole blood samples on addition of exogenous FXI (FIG. 33A, 33C); details: FIG. 33C; FXI inhibitor at Conc 1<Conc 2<Conc 3
Description: FIG. 33A provides representative clotting-curves of whole blood samples spiked with a concentration of FXI inhibitor (inh) (Conc 1<Conc 2<Conc 3); no inhibitor was added to the negative control. The curves show the samples' respective changes in clotting time as a response to the addition of increasing concentrations of exogenous FXI.
FIG. 33C reports the effect of the addition of exogenous FXI on the clotting time of various samples. In this example, the negative control, containing no inhibitor, has an unaffected clotting time with the addition of FXI.

[3] = PT and INR of patients on FXa-I versus controls; type: in vivo, human; details: patients documented to be on FXa-I; significance p<0.05
Description: FIGS. 18A-18C illustrate prothrombin time (PT) and international normalized ratio (INR) is sensitive but not specific for FXa-I anticoagulation. Both PT and INR were compared between control patients and patients documented to be on FXa-I. Abnormal PT was defined as >14 seconds and abnormal INR was defined as >1.2. […] One-way ANOVA was used to compare normal and abnormal controls with both rivaroxaban and apixaban. Significance was defined as p<0.05.

[4] = target: Factor Xa (FXa) (Homo sapiens, UniProt P00742); test: Microfluidic clotting-curve assay, plasma spiked with FXa inhibitor, FXa agonist gradient; type: biochemical
Description: (§1) A general protocol for performing the assay according to an embodiment of the invention is as follows: • a) Add together sample, agonist, +/−calcium, +/−clot detection agent • i. Calcium to a final concentration between 0.005-0.05 M (This concentration is particularly suitable for use with 3.2% buffered sodium citrate. If another anticoagulant is used, the concentration of calcium may not be 0.02 M.) • ii. Clot detection agents can include fluorescent labeled fibrinogen, magnets, beads (may be fluorescent or colored) • b) Load into microfluidic device • i. See, e.g., FIGS. 1A-1D, 2A and 2B for examples of input loading configuration and order • c) Temperature control • i. Room temperature • ii. May increase up to 37° C.
(§2) In an example, the process of clot detection can include the following procedural steps: • a) A plasma sample is pre-mixed to include: 6 μL plasma+0.6 μL agonist (10% volume to sample)+0.6 μL Calcium (stock 200 mM, 10% volume to sample)+0.6 μL Fibrinogen (this can vary in concentration, in general <10% volume of sample).
(§3) The time it takes for each of the combinations to form a clot is then plotted. […] Concentration of the agonist (FXa for FIGS. 7A-7C, and FIIa for FIG. 7D) is plotted on the X-axis for each of the figures. The units on the X-axis “ng/mL” refer to ng×10^3/mL.

[5] = target: T1, FXa (Homo sapiens, UniProt P00742); test: Clotting curves of citrated plasma from emergency department patients on FXa-I; type: in vivo; details: patient plasma samples
T1 construct: Citrated plasma samples were collected from patients; from tissue; host or cells: citrated plasma of patients
Description: Citrated plasma samples were collected from patients admitted into the Massachusetts General Hospital Emergency Department. All plasma samples had clinician-ordered coagulation tests (PT/INR, aPTT, DTT, or other). Patient samples were evaluated using an embodiment of the assay described herein. Patient medical records were reviewed for the administration of history of anticoagulants.
Clotting times were compared at various agonist concentrations for all the patient groups to construct clotting curves.

[6] = target: FIIa (Homo sapiens, UniProt P00734)
Description: as §1, §2, §3

[7] = tested on: contact activation pathway (intrinsic pathway); test: Clotting times of control and factor-deficient plasmas with exogenous coagulation factors (FIG. 25); type: biochemical
Description: FIG. 25 is a table providing representative clotting times (minutes:seconds) for various plasma samples in the presence of exogenous coagulation factors. […] The clotting time for the control plasma, with no exogenous factor added (negative control), represents the clotting time based on activation of the contact activation pathway (intrinsic pathway); this clotting time can be designated as normal clotting time. […] The clotting time of the FVIII-deficient plasma decreases with the addition of FVIII or FIXa. […] The clotting time of FIX-deficient plasma decreases with the addition of exogenous FIX or FIXa. In all plasma samples, exogenous FXa is used as a positive control to confirm the ability of the plasma sample to clot. FIIa can also be used for this purpose.

[8] = target: Factor IX (Homo sapiens, UniProt P00740); test: Clotting curve, Factor IX added to FIX-deficient plasma or plasma with anti-Factor IX antibodies (FIG. 26); type: biochemical
Description: It should be understood that the use of exogenous factor addition to a plasma sample may not be able to differentiate between deficiency and low quantities of inhibitors, for example, if the concentration of the inhibitor is low enough such that a physiological level of the factor is able to overcome the functional inhibition resulting in a normalized clotting time. Additionally, the inhibitor detected using the clotting time approach is a functional inhibitor such that the inhibitor decreases the factor's ability to propagate a blood clot.

[9] = tested on: Factors IIa and Xa; test: Whole blood clot detection in parallel microfluidic channels pre-coated with FXa; details: whole blood with unfractionated heparin, 10 minutes
Description: FIGS. 4A and 4B are fluorescent images illustrating clot detection using whole blood in a parallel microfluidic channel device 410 according to an example embodiment. Microfluidic channels 420 were pre-coated with agonist, Factor Xa, at various concentrations (7.5 ng/ml, 75 ng/ml, 750 ng/ml; units “ng/mL” refer to ng×10^3/mL) or with buffer alone (negative control). The fluorescent images are taken at one time point (10 minutes). Microfluidic channels were washed with buffer prior to use to leave only bound FXa within the microfluidic channel. Fresh whole blood was placed into each input port and the blood was drawn in through capillary action. The blood was left to flow for 10 minutes and then the channel was gently washed with buffer. Depicted is a brightfield image of two samples evaluated. […] Unfractionated heparin inhibits Factors IIa and Xa in an antithrombin III-dependent fashion, which is why the addition of these factors at appropriate concentrations can help recover the clotting capability of the sample.

Sequence of Factor Xa (FXa) (P00742 235-488 limits assumed): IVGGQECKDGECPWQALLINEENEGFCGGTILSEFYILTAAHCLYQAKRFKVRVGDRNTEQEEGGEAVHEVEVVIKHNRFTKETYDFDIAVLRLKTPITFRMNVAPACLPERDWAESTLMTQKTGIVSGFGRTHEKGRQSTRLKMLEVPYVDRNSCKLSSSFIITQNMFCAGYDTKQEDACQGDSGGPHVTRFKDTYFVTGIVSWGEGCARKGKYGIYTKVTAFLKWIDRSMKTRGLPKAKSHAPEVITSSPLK
Sequence of Factor Xa (FXa) (P00742 41-179 partner limits assumed): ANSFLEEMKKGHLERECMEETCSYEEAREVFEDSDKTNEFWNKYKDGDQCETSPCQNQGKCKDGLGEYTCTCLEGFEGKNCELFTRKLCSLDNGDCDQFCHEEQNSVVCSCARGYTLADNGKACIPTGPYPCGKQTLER
Sequence of Factor IX (P00740 29-461 limits assumed): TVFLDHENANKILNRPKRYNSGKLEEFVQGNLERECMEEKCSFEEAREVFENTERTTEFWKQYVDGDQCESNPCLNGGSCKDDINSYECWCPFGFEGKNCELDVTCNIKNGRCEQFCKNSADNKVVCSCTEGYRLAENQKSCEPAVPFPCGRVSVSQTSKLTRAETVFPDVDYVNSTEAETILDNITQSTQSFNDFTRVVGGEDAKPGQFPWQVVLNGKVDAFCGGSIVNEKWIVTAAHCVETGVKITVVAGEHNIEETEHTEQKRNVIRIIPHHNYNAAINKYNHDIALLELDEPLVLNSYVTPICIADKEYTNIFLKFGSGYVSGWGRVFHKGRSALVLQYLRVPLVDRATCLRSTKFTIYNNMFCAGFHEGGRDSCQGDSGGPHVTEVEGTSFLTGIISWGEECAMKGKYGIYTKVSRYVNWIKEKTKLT
T1 sequence (P00742 235-488 limits assumed): as the sequence (P00742 235-488 limits assumed) above
T1 sequence (P00742 41-179 partner limits assumed): as the sequence (P00742 41-179 partner limits assumed) above
Sequence of FXI (P03951 19-625, species assumed): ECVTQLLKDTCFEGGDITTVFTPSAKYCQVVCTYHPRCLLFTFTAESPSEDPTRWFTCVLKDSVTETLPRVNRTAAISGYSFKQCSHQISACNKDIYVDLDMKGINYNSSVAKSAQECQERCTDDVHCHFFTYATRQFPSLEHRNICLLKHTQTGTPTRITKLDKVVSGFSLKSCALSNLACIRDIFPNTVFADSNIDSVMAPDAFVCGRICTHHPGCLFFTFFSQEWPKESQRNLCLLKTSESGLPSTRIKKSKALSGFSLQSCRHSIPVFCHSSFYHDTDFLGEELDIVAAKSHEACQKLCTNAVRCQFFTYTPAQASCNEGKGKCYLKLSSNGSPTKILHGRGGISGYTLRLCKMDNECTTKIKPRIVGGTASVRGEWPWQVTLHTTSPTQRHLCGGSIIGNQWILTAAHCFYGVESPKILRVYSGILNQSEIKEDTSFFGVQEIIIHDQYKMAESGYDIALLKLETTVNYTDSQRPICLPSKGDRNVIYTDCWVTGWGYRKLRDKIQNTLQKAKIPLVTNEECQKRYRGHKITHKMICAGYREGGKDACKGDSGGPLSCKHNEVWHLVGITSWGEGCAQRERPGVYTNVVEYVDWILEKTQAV

Row | Compound | clotting time, control condition [1] | clotting time upon addition of exogenous FIIa [1] | clotting time upon addition of exogenous FXa [1] | PT and INR compared to abnormal controls (one-way ANOVA) [3] | clotting time upon addition of exogenous factor ([7]; FIX-deficient plasma) | clotting time upon addition of exogenous factor ([7]; FVIII-deficient plasma) | clotting time upon addition of exogenous factor ([7]; FXI-deficient plasma) | clotting time upon addition of exogenous factor ([7]; control (normal) plasma) | other results
1 | COc1ccc(-n2nc(C(N)=O)c3c2C(=O)N(c2ccc(N4CCCCC4=O)cc2)CC3)cc1 [Apixaban] | prolongation of clotting time | shortened and normalized clotting time | concentration-dependent clotting-time response | no significance | – | – | – | – | clotting time with addition of exogenous FXI [2]: prolongation in clotting time
2 | O=C(NC[C@H]1CN(c2ccc(N3CCOCC3=O)cc2)C(=O)O1)c1ccc(Cl)s1 [Rivaroxaban] | – | – | – | no significance | – | – | – | – | clot formation time versus negative control ([4]; 250 ng/mL Rivaroxaban, FXa agonist down to 375 ng×10^3/mL): significantly longer than the negative control but lower than 500 ng/mL; agonist (FXa) concentration down to which clot formation detected in <[…] ([4]; 500 ng/ml Rivaroxaban): 750 ng×10^3/mL; clot formation detection time ([4]; 500 ng/ml Rivaroxaban, FXa agonist down to 750 ng×10^3/mL): < 2.5 min; clotting times at various agonist concentrations, patient group versus control group [5]: very different from the control group
3 | Dabigatran | prolongation of clotting time | concentration-dependent change in clotting time | relatively small concentration-dependent change in clotting time | – | – | – | – | – | clot formation detection time ([6]; 250 ng/mL Dabigatran, FIIa agonist down to 710 ng×10^3/mL): < 2.5 min; clot formation detection time ([6]; 500 ng/ml Dabigatran, FIIa agonist down to 710 ng×10^3/mL): < 2.5 min; clot formation detection time ([6]; <25 ng/ml Dabigatran, FIIa agonist down to 71 ng×10^3/mL): < 2.5 min
4 | FIX: exogenous coagulation Factor IX, inactive form | – | – | – | – | decreases | prolonged clotting time | prolonged clotting time | slight decrease in clotting time | concentration of added factor needed for normal clotting time ([8]; Factor IX-deficient plasma): requires a physiological concentration of replacement factor; concentration of added factor needed to decrease clotting time ([8]; plasma containing anti-Factor IX antibodies): requires supra-physiological concentrations of the factor
5 | FXI: exogenous coagulation Factor XI, inactive form | – | – | – | – | prolonged clotting time | prolonged clotting time | decreases | slight decrease in clotting time | –
6 | unfractionated heparin | – | – | – | – | – | – | – | – | clot formation in negative control channel (buffer alone) [9]: minimal clot formation; clot formation in FXa-coated channels ([9]; FXa 7.5, 75, 750 ng×10^3/mL): gradient of clot formation dependent on the concentration of FXa in the channel
